Measured values reported in ChEMBL document CHEMBL5505987 (Eur J Med Chem, 2024).
pIC50: −log10 of the molar value. The source made the active and inactive calls. The calls are words filed in the database; no cut-off is given here.

Key:
4T1 [1] = assay: Induction of cell cycle arrest in mouse 4T1 cells assessed as accumulation of cells at G0/G1 phase at 1.5 uM measured after 24 hrs by PI staining by flow cytometry; type: functional
MDA-MB-231 [2] = assay: Anti-tumor activity against human MDA-MB-231 cells assessed as change in expression of genes involved in TGF-beta1/Smad signaling pathway measured after 24 hrs incubation by RNA-Seq analysis; type: functional, cell-based
MDA-MB-231 [3] = assay: Induction of apoptosis in human MDA-MB-231 cells assessed as decrease in Bcl-2 expression at 1 to 4 uM incubated for 24 hrs by Western blotting analysis; type: functional, cell-based; conditions: dose 1-4 µM
MDA-MB-231 [4] = assay: Anti-metastatic activity in human MDA-MB-231 cells assessed as increase in E-cadherin protein level at 1 to 4 uM by Western blotting analysis; type: functional, cell-based; conditions: dose 1-4 µM
4T1 [5] = assay: Induction of ROS production in mouse 4T1 cells at 1 to 4 uM incubated for 24 hrs by flow cytometry; type: functional, cell-based; conditions: dose 1-4 µM
MDA-MB-231 [6] = assay: Induction of cell cycle arrest in human MDA-MB-231 cells assessed as upregulation of p21 protein expression at 1 to 4 uM measured after 24 hrs by immunoblotting assay; type: functional, cell-based; conditions: dose 1-4 µM
MDA-MB-231 [7] = assay: Reduction in PCNA protein expression in human MDA-MB-231 cells by Western blotting analysis; type: functional, cell-based; conditions: dose 1-4 µM
[8] = Cytotoxicity against human HFF cells assessed as cell viability by MTT assay; type: toxicity, cell-based
A549 = assay: Cytotoxicity against human A549 cells assessed as cell viability by MTT assay; type: functional, cell-based
4T1 [9] = assay: Cytotoxicity against mouse 4T1 cells assessed as cell viability by MTT assay; type: functional, cell-based
MDA-MB-231 [10] = assay: Induction of cell cycle arrest in human MDA-MB-231 cells assessed as accumulation of cells at G0/G1 phase measured after 24 hrs in presence of SB-431542 TGF-beta signaling inhibitor by PI staining by flow cytometry; type: functional, cell-based
4T1 [11] = assay: Induction of apoptosis in mouse 4T1 cells assessed as increase in apoptotic rate at 1.5 uM incubated for 24 hrs by Annexin V-FITC/PI double staining by flow cytometry; type: functional
MDA-MB-231 [12] = assay: Cytotoxicity against human MDA-MB-231 cells assessed as cell viability by MTT assay; type: functional, cell-based
[13] = Cytotoxicity against human BEAS-2B cells assessed as cell viability by MTT assay; type: toxicity, cell-based
MDA-MB-231 [14] = assay: Anti-tumor activity against human MDA-MB-231 cells assessed as change in TGF-beta1/Smad signaling pathway by measuring increase in p-Smad2 level after 24 hrs incubation by Western blot analysis; type: functional, cell-based; conditions: dose 1-4 µM
MDA-MB-231 [15] = assay: Induction of apoptosis in human MDA-MB-231 cells assessed as increase in Bax expression at 1 to 4 uM incubated for 24 hrs by Western blotting analysis; type: functional, cell-based; conditions: dose 1-4 µM
MDA-MB-231 [16] = assay: Anti-tumor activity against human MDA-MB-231 cells assessed as change in TGF-beta1/Smad signaling pathway by measuring fluorescence intensity of TGF-beta1 level at 2 to 4 uM after 24 hrs incubation by immunofluorescence staining assay; type: functional, cell-based; conditions: dose 2-4 µM
4T1 [17] = assay: Reduction of ATP level in mouse 4T1 cells incubated for 24 hrs by colorimetric based ATP Content Assay Kit; type: functional, cell-based; conditions: dose 1-4 µM
MDA-MB-231 [18] = assay: Induction of cell cycle arrest in human MDA-MB-231 cells assessed as reduction in CDK6 expression at 1 to 4 uM measured after 24 hrs by immunoblotting assay; type: functional, cell-based; conditions: dose 1-4 µM
4T1 [19] = assay: Anti-tumor activity against mouse 4T1 cells assessed as decrease in cell viability at 8 uM incubated for 24 hrs in presence of SB-431542 TGF-beta signaling inhibitor by MTT assay; type: functional, cell-based
4T1 [20] = assay: Anti-proliferative activity against mouse 4T1 cells assessed as cell viability measured after 24 hrs by MTT assay; type: functional, cell-based; conditions: dose 1-8 µM
4T1 [21] = assay: Induction of cell cycle arrest in mouse 4T1 cells assessed as accumulation of cells at G0/G1 phase at 6 uM measured after 24 hrs by PI staining by flow cytometry; type: functional
4T1 [22] = assay: Induction of apoptosis in mouse 4T1 cells assessed as increase in apoptotic rate incubated for 24 hrs in presence of SB-431542 TGF-beta signaling inhibitor by Annexin V-FITC/PI double staining by flow cytometry; type: functional, cell-based
MDA-MB-231 [23] = assay: Induction of ROS production in human MDA-MB-231 cells at 1 to 4 uM incubated for 24 hrs by flow cytometry; type: functional, cell-based; conditions: dose 1-4 µM
MDA-MB-231 [24] = assay: Induction of mitochondrial membrane potential loss in human MDA-MB-231 cells assessed as decrease in fluorescence intensity by JC-1 aggregate assay; type: functional, cell-based; conditions: dose 2-4 µM
MDA-MB-231 [25] = assay: Anti-invasive activity in human MDA-MB-231 cells assessed as reduction in cell invasion incubated for 24 hrs by Transwell assay; type: functional, cell-based; conditions: dose 3-6 µM
MDA-MB-231 [26] = assay: Induction of mitochondrial membrane potential loss in human MDA-MB-231 cells assessed as increase in fluorescence intensity by JC-1 monomer assay; type: functional, cell-based; conditions: dose 2-4 µM
MDA-MB-231 [27] = assay: Inhibition of colony formation in human MDA-MB-231 cells assessed as reduction in colony formation treated for 10 days medium refreshed every two days by crustal violet based assay; type: functional, cell-based; conditions: time 10.0 day
MDA-MB-231 [28] = assay: Anti-tumor activity against human MDA-MB-231 cells assessed as decrease in cell viability at 8 uM incubated for 24 hrs in presence of SB-431542 TGF-beta signaling inhibitor by MTT assay; type: functional, cell-based
MDA-MB-231 [29] = assay: Anti-metastatic activity in human MDA-MB-231 cells assessed as decrease in ZEB1 protein level at 1 to 4 uM by Western blotting analysis; type: functional, cell-based; conditions: dose 1-4 µM

**Q.** With O=C1C[C@@H](c2ccccc2)Oc2cc(O)c([C@H](/C=C/C[C@@H](O)CCc3ccccc3)c3ccccc3)c(O)c21 as the compound, how does the Activity (4T1 [1]) read?
**A.** 55.78%

**Q.** And the Activity (MDA-MB-231 [2])?
**A.** Active

**Q.** What about the Activity (MDA-MB-231 [3]) of the same compound?
**A.** Active

**Q.** What about the Activity (MDA-MB-231 [4]) of the same compound?
**A.** Active

**Q.** And the Activity (4T1 [5])?
**A.** Active

**Q.** What about the Activity (MDA-MB-231 [6]) of the same compound?
**A.** Active

**Q.** And the inhibition (MDA-MB-231 [7])?
**A.** Dose-Dependent Effect

**Q.** What about the pIC50 [8] of the same compound?
**A.** 5.23

**Q.** And the pIC50 (A549)?
**A.** 5.49

**Q.** What about the pIC50 (4T1 [9]) of the same compound?
**A.** 5.55

**Q.** And the Activity (MDA-MB-231 [10])?
**A.** inactive

**Q.** What about the Activity (4T1 [11]) of the same compound?
**A.** 6.84%

**Q.** And the pIC50 (MDA-MB-231 [12])?
**A.** 5.36

**Q.** And the pIC50 [13]?
**A.** 5.28

**Q.** And the Activity (MDA-MB-231 [14])?
**A.** Dose-Dependent Effect

**Q.** What about the Activity (MDA-MB-231 [15]) of the same compound?
**A.** Active

**Q.** What about the Activity (MDA-MB-231 [16]) of the same compound?
**A.** Active

**Q.** What about the inhibition (4T1 [17]) of the same compound?
**A.** Active

**Q.** And the Activity (MDA-MB-231 [18])?
**A.** Active

**Q.** What about the Activity (4T1 [19]) of the same compound?
**A.** inactive

**Q.** And the Activity (4T1 [20])?
**A.** Dose-Dependent Effect

**Q.** What about the Activity (4T1 [21]) of the same compound?
**A.** 78.34%

**Q.** What about the Activity (4T1 [22]) of the same compound?
**A.** inactive

**Q.** And the Activity (MDA-MB-231 [23])?
**A.** Active

**Q.** What about the Activity (MDA-MB-231 [24]) of the same compound?
**A.** Dose-Dependent Effect

**Q.** What about the Activity (MDA-MB-231 [25]) of the same compound?
**A.** Dose-Dependent Effect

**Q.** And the Activity (MDA-MB-231 [26])?
**A.** Dose-Dependent Effect

**Q.** And the inhibition (MDA-MB-231 [27])?
**A.** Dose-Dependent Effect

**Q.** What about the Activity (MDA-MB-231 [28]) of the same compound?
**A.** inactive

**Q.** And the Activity (MDA-MB-231 [29])?
**A.** Active
